Experimental data: PubChem BioAssay (NCI)
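1) Cells in 96-well plates. 2) Compound, 48 h, 5 concentrations. 3) Linear interpolation between surrounding doses. 4) Unreached endpoint = highest concentration. The concentration for 50% growth inhibition is given as GI50. TGI: total growth inhibition.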

How the values were obtained:
Assay in all cases: DTP human tumour cell line panel, 48 h; in the data active = GI50 below about 0.43 µM; inactive = the rest
CAKI-1 renal = system: CAKI-1 renal
LOX IMVI melanoma = system: LOX IMVI melanoma
HS 578T breast = system: HS 578T breast
OVCAR-3 ovarian = system: OVCAR-3 ovarian
HCT-15 colon = system: HCT-15 colon
SN12C renal = system: SN12C renal
NCI-H522 lung = system: NCI-H522 lung
NCI-H460 lung = system: NCI-H460 lung
MDA-MB-231 breast = system: MDA-MB-231 breast
T-47D breast = system: T-47D breast
DU-145 prostate = system: DU-145 prostate
HCC-2998 colon = system: HCC-2998 colon
HOP-62 NSCLC = system: HOP-62 NSCLC
SK-MEL-5 melanoma = system: SK-MEL-5 melanoma
M14 melanoma = system: M14 melanoma
HOP-92 NSCLC = system: HOP-92 NSCLC
RPMI-8226 leukemia = system: RPMI-8226 leukemia
SK-OV-3 ovarian = system: SK-OV-3 ovarian
EKVX NSCLC = system: EKVX NSCLC
K-562 leukemia = system: K-562 leukemia
SF-295 CNS = system: SF-295 CNS
SF-268 CNS = system: SF-268 CNS
BT-549 breast = system: BT-549 breast
A549 NSCLC = system: A549 NSCLC
SNB-19 CNS = system: SNB-19 CNS
UACC-257 melanoma = system: UACC-257 melanoma
PC-3 prostate = system: PC-3 prostate
U251 CNS = system: U251 CNS
MOLT-4 leukemia = system: MOLT-4 leukemia
NCI-H23 lung = system: NCI-H23 lung
UO-31 renal = system: UO-31 renal
UACC-62 melanoma = system: UACC-62 melanoma
CCRF-CEM leukemia = system: CCRF-CEM leukemia
OVCAR-8 ovarian = system: OVCAR-8 ovarian
SW-620 colon = system: SW-620 colon
NCI/ADR-RES ovarian = system: NCI/ADR-RES ovarian
HCT-116 colon = system: HCT-116 colon
SK-MEL-2 melanoma = system: SK-MEL-2 melanoma
MDA-MB-435 = system: MDA-MB-435
ACHN renal = system: ACHN renal
SF-539 CNS = system: SF-539 CNS
786-0 renal = system: 786-0 renal
KM12 colon = system: KM12 colon
MCF7 breast = system: MCF7 breast

O=C1c2cc(Br)ccc2-c2c1c1ccccc1c(=O)n2CCCCl
68.5 µM: TGI (SF-539 CNS)
> 100 µM: TGI (HCT-15 colon) | TGI (NCI-H522 lung) | TGI (NCI-H460 lung) | TGI (T-47D breast) | TGI (DU-145 prostate) | TGI (M14 melanoma) | TGI (RPMI-8226 leukemia) | TGI (SK-OV-3 ovarian) | TGI (EKVX NSCLC) | TGI (K-562 leukemia) | TGI (SF-268 CNS) | TGI (BT-549 breast) | TGI (SNB-19 CNS) | TGI (PC-3 prostate) | TGI (UO-31 renal) | TGI (CCRF-CEM leukemia) | TGI (SW-620 colon) | TGI (SK-MEL-2 melanoma) | TGI (MDA-MB-435) | TGI (KM12 colon) | TGI (MCF7 breast)
7.91 µM: TGI (OVCAR-3 ovarian)
inactive: GI50 (CAKI-1 renal) 2.84 µM | GI50 (LOX IMVI melanoma) 8.56 µM | GI50 (HS 578T breast) 27.4 µM | GI50 (OVCAR-3 ovarian) 0.964 µM | GI50 (HCT-15 colon) 26.8 µM | GI50 (SN12C renal) 14.1 µM | GI50 (NCI-H522 lung) 39.8 µM | GI50 (NCI-H460 lung) 7.54 µM | GI50 (MDA-MB-231 breast) 13.1 µM | GI50 (T-47D breast) > 100 µM | GI50 (DU-145 prostate) 64.7 µM | GI50 (HCC-2998 colon) 14.1 µM | GI50 (HOP-62 NSCLC) 3.34 µM | GI50 (SK-MEL-5 melanoma) 14.4 µM | GI50 (M14 melanoma) 13.2 µM | GI50 (HOP-92 NSCLC) 12.7 µM | GI50 (RPMI-8226 leukemia) 41.6 µM | GI50 (SK-OV-3 ovarian) 29.3 µM | GI50 (EKVX NSCLC) 94.3 µM | GI50 (K-562 leukemia) 34.8 µM | GI50 (SF-295 CNS) 4.29 µM | GI50 (SF-268 CNS) 41.2 µM | GI50 (BT-549 breast) 44.5 µM | GI50 (A549 NSCLC) 3.99 µM | GI50 (SNB-19 CNS) 72.2 µM | GI50 (UACC-257 melanoma) 17.7 µM | GI50 (PC-3 prostate) 18.3 µM | GI50 (U251 CNS) 13.5 µM | GI50 (MOLT-4 leukemia) 3.07 µM | GI50 (NCI-H23 lung) 13 µM | GI50 (UO-31 renal) 41 µM | GI50 (UACC-62 melanoma) 5.65 µM | GI50 (CCRF-CEM leukemia) 8.51 µM | GI50 (OVCAR-8 ovarian) 15.9 µM | GI50 (SW-620 colon) 40.9 µM | GI50 (NCI/ADR-RES ovarian) 15.2 µM | GI50 (HCT-116 colon) 3.05 µM | GI50 (SK-MEL-2 melanoma) 76.8 µM | GI50 (MDA-MB-435) 29.4 µM | GI50 (ACHN renal) 9.19 µM | GI50 (SF-539 CNS) 25.1 µM | GI50 (786-0 renal) 7.95 µM | GI50 (KM12 colon) 16.6 µM | GI50 (MCF7 breast) 1.61 µM
20.6 µM: TGI (CAKI-1 renal)
30.8 µM: TGI (ACHN renal)
60.1 µM: TGI (NCI/ADR-RES ovarian)
37.1 µM: TGI (MDA-MB-231 breast)
95.7 µM: TGI (UACC-257 melanoma)
22.3 µM: TGI (UACC-62 melanoma)
71.5 µM: TGI (HCC-2998 colon)
90.7 µM: TGI (HS 578T breast)
77.7 µM: TGI (SK-MEL-5 melanoma)
36.7 µM: TGI (U251 CNS)
21.4 µM: TGI (SF-295 CNS)
65.8 µM: TGI (OVCAR-8 ovarian)
36.3 µM: TGI (A549 NSCLC)
17.1 µM: TGI (HCT-116 colon)
55.9 µM: TGI (SN12C renal)
40.9 µM: TGI (NCI-H23 lung)
26.2 µM: TGI (786-0 renal)
61.3 µM: TGI (LOX IMVI melanoma)
17.8 µM: TGI (HOP-62 NSCLC)
46.2 µM: TGI (HOP-92 NSCLC)
8.6 µM: TGI (MOLT-4 leukemia)
